According to patent publication US20140051679A1, “KINASE INHIBITORS AND METHOD OF TREATING CANCER WITH SAME” (UNIVERISTY HEALTH NETWORKS, priority 2011, published 2014):

Columns and labels:
[1] = system: Ovarian TICs, 2393A ovarian; experiment: Ovarian tumor-initiating cell growth inhibition (Alamar Blue); assay type: cell-based; conditions: 144 h, 6 days, read-out: GI50 range 2393A ovarian
[2] = system: MDA-MB-468 breast cancer cells; experiment: Cell growth inhibition, Sulforhodamine B assay, MDA-MB-468; assay type: cell-based; conditions: Homo sapiens, 120 h, 5 days culture, SRB assay, read-out: Cell Line GI50 Range MDA-MB-468
Aurora B = target: T1, Aurora B (Homo sapiens, UniProt Q96GD4); experiment: Aurora B inhibition assay (Z-Lyte); assay type: biochemical; conditions: 28 nM Aurora B, 128 μM ATP; read-out: IC50 Ranges Aurora B
T1 construct: purchased Invitrogen PV3970
Method: Aurora B inhibition was determined using the Z-Lyte assay kit from Invitrogen. The assay was performed using the recommended manufacturer's instructions with 128 μM ATP and 28 nM Aurora B (Invitrogen cat #PV3970). The % inhibition values were determined according to the manufacturer's directions and IC50 values were obtained using a non-linear 4 point logistic curve fit (XLfit4, IDBS)

[3] = system: HCT116 colon cancer cells; experiment: Cell growth inhibition, Sulforhodamine B assay, HCT116; assay type: cell-based; conditions: Homo sapiens, HCT-116, 120 h, 5 days culture, SRB assay, read-out: Cell Line GI50 Range HCT116
human TTK = target: T2, human TTK (Homo sapiens, UniProt P33981); experiment: TTK inhibition assay (indirect ELISA); assay type: biochemical; conditions: GST-TTK 0.68 nM, 16 μM ATP; read-out: IC50 Ranges TTK
T2 construct: amino terminal GST fusion of full length human TTK; purchased Invitrogen
T2 sequence (P33981 1-857): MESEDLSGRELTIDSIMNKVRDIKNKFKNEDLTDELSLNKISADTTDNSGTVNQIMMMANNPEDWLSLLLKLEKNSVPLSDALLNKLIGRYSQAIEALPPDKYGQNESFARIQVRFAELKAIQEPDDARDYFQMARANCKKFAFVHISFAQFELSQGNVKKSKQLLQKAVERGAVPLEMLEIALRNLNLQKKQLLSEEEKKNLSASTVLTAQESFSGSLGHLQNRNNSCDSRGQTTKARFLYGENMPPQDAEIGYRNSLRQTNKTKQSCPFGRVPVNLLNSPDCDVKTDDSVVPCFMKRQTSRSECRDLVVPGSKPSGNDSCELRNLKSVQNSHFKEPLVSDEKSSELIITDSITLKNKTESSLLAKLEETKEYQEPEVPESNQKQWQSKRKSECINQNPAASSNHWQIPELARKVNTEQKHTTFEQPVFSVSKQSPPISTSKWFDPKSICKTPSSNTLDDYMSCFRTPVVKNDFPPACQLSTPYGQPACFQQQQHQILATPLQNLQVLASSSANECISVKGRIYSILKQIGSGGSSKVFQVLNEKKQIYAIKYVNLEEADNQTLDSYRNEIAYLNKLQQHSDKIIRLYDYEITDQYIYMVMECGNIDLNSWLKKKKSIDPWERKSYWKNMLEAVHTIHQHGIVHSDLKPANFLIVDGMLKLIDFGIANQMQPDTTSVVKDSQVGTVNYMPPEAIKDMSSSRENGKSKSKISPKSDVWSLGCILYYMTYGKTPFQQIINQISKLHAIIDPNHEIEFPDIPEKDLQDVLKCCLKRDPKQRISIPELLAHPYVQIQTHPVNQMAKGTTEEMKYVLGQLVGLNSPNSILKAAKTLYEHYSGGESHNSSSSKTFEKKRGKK

human PLK4 = target: T3, human PLK4 (Homo sapiens, UniProt O00444); experiment: PLK4 inhibition assay (indirect ELISA); assay type: biochemical; conditions: GST-PLK4 4 nM, 15 μM ATP; read-out: IC50 Ranges PLK4
T3 construct: amino terminal GST fusion of residues 1-391 of human PLK4; made in house; host or cells: E. coli
T3 sequence (O00444 1-391): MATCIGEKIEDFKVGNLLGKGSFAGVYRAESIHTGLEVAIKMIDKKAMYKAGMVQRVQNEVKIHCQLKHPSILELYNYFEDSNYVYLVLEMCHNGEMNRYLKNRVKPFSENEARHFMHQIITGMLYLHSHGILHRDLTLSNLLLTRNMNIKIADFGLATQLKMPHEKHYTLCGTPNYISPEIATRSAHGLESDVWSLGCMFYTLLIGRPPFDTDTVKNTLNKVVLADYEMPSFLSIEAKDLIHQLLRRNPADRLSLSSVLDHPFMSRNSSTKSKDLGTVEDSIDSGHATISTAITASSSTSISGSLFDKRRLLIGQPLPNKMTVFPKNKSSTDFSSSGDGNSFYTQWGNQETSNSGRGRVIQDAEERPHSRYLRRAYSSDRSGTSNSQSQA
Summary of the method: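 Dephosphorylated GST-tagged human PLK4 (residues 1-391, E. coli), 4 nM, preincubated 15 min with compound, then reacted 30 min with 15 μM ATP on MBP-coated plates (50 mM HEPES pH 7.5, 10 mM MgCl2, 0.01% Brij 35). Phospho-MBP detected by antibody ELISA at 450 nm. Tested at 10 μM or 10-point titrations; IC50 from 4-parameter logistic fit.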

[4] = system: PA-1 ovarian cancer cells; experiment: Cell growth inhibition, Sulforhodamine B assay, PA-1; assay type: cell-based; conditions: 120 h, 5 days culture, SRB assay, read-out: Cell Line GI50 Range PA-1
[5] = system: Colon tumor initiating cells (TICs), 12 colon; experiment: Colon tumor-initiating cell growth inhibition (Alamar Blue); assay type: cell-based; conditions: 216 h, 9 days, read-out: GI50 range 12 colon
HT29 colon cancer cells = experiment: Cell growth inhibition, Sulforhodamine B assay, HT29; assay type: cell-based; conditions: Homo sapiens, HT-29, 120 h, 5 days culture, SRB assay, read-out: Cell Line GI50 Range HT29
[6] = system: MDA-MB-231 breast cancer cells; experiment: Cell growth inhibition, Sulforhodamine B assay, MDA-MB-231; assay type: cell-based; conditions: Homo sapiens, 120 h, 5 days culture, SRB assay, read-out: Cell Line GI50 Range MDA-MB-231
[7] = system: OVCAR-3 ovarian cancer cells; experiment: Cell growth inhibition, Sulforhodamine B assay, OVCAR-3; assay type: cell-based; conditions: Homo sapiens, 120 h, 5 days culture, SRB assay, read-out: Cell Line GI50 Range OVCAR-3

T1 sequence (Q96GD4 whole entry): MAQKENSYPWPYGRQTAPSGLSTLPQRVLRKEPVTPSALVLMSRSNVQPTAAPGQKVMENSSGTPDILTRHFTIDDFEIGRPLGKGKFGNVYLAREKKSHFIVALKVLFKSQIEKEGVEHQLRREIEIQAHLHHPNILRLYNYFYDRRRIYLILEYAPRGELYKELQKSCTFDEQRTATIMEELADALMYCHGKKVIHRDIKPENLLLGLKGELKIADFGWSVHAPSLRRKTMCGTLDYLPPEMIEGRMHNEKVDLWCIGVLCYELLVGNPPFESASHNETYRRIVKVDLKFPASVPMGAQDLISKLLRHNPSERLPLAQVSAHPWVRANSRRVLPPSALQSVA

SMILES | GI50 [1] [µM] | GI50 [2] [µM] | IC50 (Aurora B) [µM] | GI50 [3] [µM] | IC50 (human TTK) [µM] | IC50 (human PLK4) [µM] | GI50 [4] [µM] | GI50 [5] [µM] | GI50 (HT29 colon cancer cells) [µM] | GI50 [6] [µM] | GI50 [7] [µM]
O=CN1CCC(Oc2ccc(-c3n[nH]c4ccc(C(=O)NC(c5ccccc5F)C5CC5)cc34)cc2)CC1 (stereo not shown) [Example A182, N-(cyclopropyl(2-fluorophenyl)methyl)-3-(4-((1-formylpiperidin-4-yl)oxy)phenyl)-1H-indazole-5-carboxamide] | ≤ 5 | ≤ 5 | ≤ 5 | ≤ 5 | ≤ 5 | ≤ 5 | ≤ 5 | ≤ 5 |  |  | 
CC(C)(O)C1CCN(c2ccc(-c3n[nH]c4ccc(C(=O)NC(c5ccccn5)C5CC5)cc34)cc2)CC1 (stereo not shown) [Example A180, N-(cyclopropyl(pyridin-2-yl)methyl)-3-(4-(4-(2-hydroxypropan-2-yl)piperidin-1-yl)phenyl)-1H-indazole-5-carboxamide] | ≤ 5 | ≤ 5 | ≤ 5 | ≤ 5 | ≤ 5 | ≤ 5 | ≤ 5 | ≤ 5 |  |  | 
O=C(Nc1ccc2[nH]nc(-c3ccc(N4CCOCC4)cc3)c2c1)C(c1ccsc1)N1CCC1 (stereo not shown) [Example A172, 2-(azetidin-1-yl)-N-(3-(4-morpholinophenyl)-1H-indazol-5-yl)-2-(thiophen-3-yl)acetamide] | ≤ 5 | ≤ 5 | ≤ 5 | ≤ 5 | ≤ 5 | ≤ 5 | ≤ 5 | ≤ 5 | ≤ 5 |  | 
O=CN1CCC(Oc2ccc(-c3n[nH]c4ccc(C(=O)NC(c5ccsc5)C5CC5)cc34)cc2)CC1 (stereo not shown) [Example A186, N-(cyclopropyl(thiophen-3-methyl-3-yl)methyl)-3-(4-((1-formylpiperidin-4-yl)oxy)phen)-1H-indazole-5-carboxamide] | ≤ 5 | ≤ 5 | ≤ 5 | ≤ 5 | ≤ 5 | ≤ 5 | ≤ 5 | ≤ 5 |  |  | 
O=C(Nc1ccc2[nH]nc(-c3ccc(OC4CCOCC4)cc3)c2c1)C(c1ccsc1)N1CCCC1 (stereo not shown) [Example A29, 2-(pyrrolidin-1-yl)-N-(3-(4-((tetrahydro-2H-pyran-4-yl)oxy)phenyl)-1H-indazol-5-yl)-2-(thiophen-3-yl)acetamide] | ≤ 5 | ≤ 5 | ≤ 5 | ≤ 5 | ≤ 5 | ≤ 5 |  | ≤ 5 | ≤ 5 | 5 to 20 | 5 to 20
O=C(NC(c1ccccc1)C1CC1)c1ccc2[nH]nc(-c3ccc(OC4CN(C5COC5)C4)cc3)c2c1 (stereo not shown) [Example A190, N-(cyclopropyl(phenyl)methyl)-3-(4-((1-(oxetan-3-yl)azetidin-3-yl)oxy)phenyl)-1H-indazole-5-carboxamide] | ≤ 5 | ≤ 5 | ≤ 5 | ≤ 5 | ≤ 5 | ≤ 5 | ≤ 5 | ≤ 5 |  |  | 
O=C(NC(c1ccsc1)C1CC1)c1ccc2[nH]nc(-c3ccc(N4CCOCC4)cc3)c2c1 (stereo not shown) [Example A35, N-(cyclopropyl(thiophen-3-yl)methyl)-3-(4-morpholinophenyl)-1H-indazole-5-carboxamide] | ≤ 5 | ≤ 5 | ≤ 5 | ≤ 5 | ≤ 5 | ≤ 5 |  | ≤ 5 | ≤ 5 | ≤ 5 | ≤ 5
O=C(Nc1ccc2[nH]nc(-c3ccc(N4CCOCC4)cc3)c2c1)C(c1ccsc1)N1CCCC1 (stereo not shown) [Example A4, N-(3-(4-morpholinophenyl)-1H-indazol-5-yl)-2-(pyrrolidin-1-yl)-2-(thiophen-3-yl)acetamide] | ≤ 5 | ≤ 5 | ≤ 5 | ≤ 5 | ≤ 5 | ≤ 5 |  | ≤ 5 | ≤ 5 | ≤ 5 | 5 to 20

Results, then the compound that gave them:

GI50 [1] [µM] | GI50 [2] [µM] | IC50 (Aurora B) [µM] | GI50 [3] [µM] | IC50 (human TTK) [µM] | IC50 (human PLK4) [µM] | GI50 [4] [µM] | GI50 [5] [µM] | GI50 (HT29 colon cancer cells) [µM] | GI50 [6] [µM] | GI50 [7] [µM] | SMILES
≤ 5 | ≤ 5 | ≤ 5 | ≤ 5 | ≤ 5 | ≤ 5 | ≤ 5 | ≤ 5 |  |  |  | O=C(Nc1ccc2[nH]nc(-c3ccc(OC4CCN(C5COC5)CC4)cc3)c2c1)C(c1ccccc1)C1CC1 (stereo not shown) [Example A185, 2-cyclopropyl-N-(3-(4-((1-(oxetan-3-yl)piperidin-4-yl)oxy)phenyl)-1H-indazol-5-yl)-2-phenylacetamide]
≤ 5 | ≤ 5 | ≤ 5 | ≤ 5 | ≤ 5 | ≤ 5 |  | ≤ 5 | ≤ 5 | 5 to 20 | 5 to 20 | CO[C@@H](C(=O)Nc1ccc2[nH]nc(-c3ccc(OC4CCN(C)CC4)cc3)c2c1)c1ccccc1 [Example A27, (R)-2-methoxy-N-(3-(4-((1-methylpiperidin-4-yl)oxy)phenyl)-1H-indazol-5-yl)-2-phenylacetamide]
≤ 5 | ≤ 5 | ≤ 5 | ≤ 5 | ≤ 5 | ≤ 5 |  | ≤ 5 | ≤ 5 | ≤ 5 | ≤ 5 | CCc1cccc(CC)c1NC(=O)Nc1ccc2[nH]nc(-c3ccc(OC4CCN(C)CC4)cc3)c2c1 [Example A46]
≤ 5 | ≤ 5 | ≤ 5 | ≤ 5 | ≤ 5 | ≤ 5 |  | ≤ 5 | ≤ 5 | ≤ 5 | ≤ 5 | CN1CCC(Oc2ccc(-c3n[nH]c4ccc(C(=O)NC(c5ccsc5)C5CC5)cc34)cc2)CC1 (stereo not shown) [Example A33, N-(cyclopropyl(thiophen-3-yl)methyl)-3-(4-((1-methylpiperidin-4-yl)oxy)phenyl)-1H-indazole-5-carboxamide]
